A short description of data set [1]: Partition coefficient (log P), n-octanol/PBS. Format: physicochemical. The method, then:
In a 15 mL centrifuge tube, 2.9 mL of PBS (0.1 mol/L, pH = 7.4) and 3 mL of n-octanol were added. [^68Ga]Ga-TATE-46, [^68Ga]Ga-DOTA-TATE, or [^68Ga]Ga-FAPI-46 (14.8 MBq, 100 µL) were added to each tube. The mixture was vortexed at room temperature for 2 min to ensure thorough blending, and then centrifuged at room temperature (effective centrifuge radius 12 cm, 3000 rpm) for 5 min. After allowing sufficient time for phase separation, three 500 µL samples were taken from each layer. The radioactivity of each sample was measured using a γ-counter (count per minute, CPM), and log p = log (n-octanol CPM/water CPM) was calculated. The experiment was repeated three times.

Data set [2] is described as follows: Ex vivo biodistribution in NCI-H727 tumor-bearing mice. Conditions: female, BALB/c nude, mouse, in vivo, 1.48 MBq, total radioactivity, Biodistribution. The method, then: (§1) Female BALB/c nude mice were obtained from Charles River Laboratories (Beijing, China). […] Approximately 5 × 10^6 cells were implanted into the right shoulder of each mouse to establish an NCI-H727 tumor model and Mc38 tumor model. Once the tumor volume reached 200–300 mm^3, the mice were used for imaging or biodistribution studies. All animal experiments were carried out in accordance with the National Institutes of Health Guidelines for the Care and Use of Laboratory Animals and were approved by the Animal Protection and Utilization Committee of the General Hospital of the PLA (Approval No.: S2023-209-1).
(§2) The NCI-H727 tumor-bearing mice were randomly assigned to four groups (with three mice in each group) and were injected with [^68Ga]Ga-TATE-46 (1.48 MBq, 100 µL). The mice were put to death at 0.5, 1, 2, and 4 h post-injection (p.i.). The tissues and organs of concern were gathered, weighed, and measured for radioactivity using a γ-counter. Additionally, [^68Ga]Ga-DOTA-TATE and [^68Ga]Ga-FAPI-46 were used as control groups in the biodistribution study of the NCI-H727 tumor model at 1 h p.i. After performing time decay correction, the radiotracer uptake in each tissue and organ was calculated as %ID/g.

Data set [3] is described as follows: Pharmacokinetics, blood time-activity curves, two-compartment model. The format is in vivo, BALB/c mice. The method, then:
Nine female healthy BALB/c mice were randomly divided into three groups (with three mice in each group) using a random number table. Each group was administered 100 µL of [^68Ga]Ga-TATE-46, [^68Ga]Ga-DOTA-TATE, or [^68Ga]Ga-FAPI-46 (0.37 MBq) via tail vein injection. Blood samples (5 µL × 3) were collected at 2, 5, 10, 15, 30, 60, 90, and 120 min post-injection via tail vein. The radioactivity in the blood was measured with a γ-counter and converted to blood radioactivity concentration (kBq/mL). The pharmacokinetic data (time–blood radioactivity concentration) were analyzed by using the two-compartment model in the pharmacokinetic software WinNonlin (Certara, Louis, MO, USA, 2018-06) to determine the distribution and clearance half-life parameters of the radiopharmaceuticals in the mice.

Data set [4] relates to NCI-H727 tumor-bearing mice. Kind of data set: Ex vivo biodistribution in NCI-H727 tumor-bearing mice. Conditions: 1 h p.i., γ-counter, mean ± SD, n=3. The method, then: as §1, §2
Where [5] appears, read: female healthy BALB/c mice, n = 3 per group, 0.37 MBq tail vein, blood 2-120 min, γ-counter, two-compartment model (WinNonlin).

In data set [1] (pH 7.4), `C[C@@H](O)[C@H](NC(=O)[C@@H]1CSSC[C@H](NC(=O)[C@@H](Cc2ccccc2)NC(=O)CN2CCN(CC(=O)O)CCN(CC(=O)O)CCN(CC(=O)O)CC2)C(=O)N[C@@H](Cc2ccc(O)cc2)C(=O)N[C@H](Cc2c[nH]c3ccccc23)C(=O)N[C@@H](CCCCN)C(=O)N[C@@H]([C@@H](C)O)C(=O)N1)C(=O)O` [[^68Ga]Ga-DOTA-TATE, metal not drawn, reference compound] displayed a logD of -3.02 ± 0.08. Moreover, the tissue uptake at 1 h in data set [2] (Blood) was found to be 0.42 ± 0.15 %ID/g; in data set [2] (Brain) it was 0.03 ± 0.01 %ID/g; in data set [2] (Heart), 0.23 ± 0.09 %ID/g; in data set [2] (Intestine), 1.48 ± 0.11 %ID/g; in data set [2] (Kidney), 9.18 ± 3.65 %ID/g; in data set [2] (Liver), 1.35 ± 0.28 %ID/g. In addition, the tissue uptake at 1 h in data set [2] (Lung) is 5.22 ± 0.82 %ID/g; in data set [2] (Spleen) it was 1.22 ± 0.11 %ID/g; in data set [2] (Stomach) it was 7.98 ± 0.89 %ID/g; in data set [2] (Tumor (tumor uptake)) it was 1.57 ± 0.17 %ID/g. Further, the distribution half-life in data set [3] (mouse, in vivo) was found to be 1.38 min. In addition, the elimination half-life in data set [3] (mouse, in vivo) was found to be 19.50 min.

For `CN(CCCN1CCN(C(=O)CN2CCN(CC(=O)[O-])CCN(CC(=O)[O-])CCN(CC(=O)[O-])CC2)CC1)c1ccc2nccc(C(=O)NCC(=O)N3CC(F)(F)C[C@H]3C#N)c2c1.[68Ga+3]` [[^68Ga]Ga-FAPI-46, reference compound], the Log p in data set [1] (shake-flask n-octanol/PBS (0.1 mol/L, pH 7.4), 14.8 MBq in 100 µL, vortexed 2 min at room temperature, centrifuged 3000 rpm 5 min, γ-counter CPM, mean ± SD, repeated three times) is reported as −3.05 ± 0.04. Moreover, the “Biodistribution, Tumor (tumor uptake)” value in data set [4] (NCI-H727 tumor) came out at 1.07 ± 0.01 %ID/g. Further, in data set [4] (NCI-H727 tumor-bearing mice), the “Biodistribution, Blood” value is listed as 1.05± 0.05 %ID/g; the “Biodistribution, Bone” value was 0.51± 0.05 %ID/g; the “Biodistribution, Brain” value came to 0.05± 0.01 %ID/g; the “Biodistribution, Heart” value is listed as 0.39± 0.16 %ID/g. In addition, in data set [4] (NCI-H727 tumor-bearing mice), the “Biodistribution, Intestine” value was determined as 0.38± 0.01 %ID/g; the “Biodistribution, Kidney” value came to 2.25± 0.12 %ID/g; the “Biodistribution, Liver” value was 2.56± 0.95 %ID/g; the “Biodistribution, Lung” value worked out at 3.17± 0.79 %ID/g. Also, in data set [4] (NCI-H727 tumor-bearing mice), the “Biodistribution, Muscle” value is 0.18± 0.02 %ID/g; the “Biodistribution, Spleen” value came to 3.75± 0.75 %ID/g; the “Biodistribution, Stomach” value came to 0.38± 0.01 %ID/g. Further, in data set [3] (setting [5]), the distribution half-life is listed as 0.64 min and the elimination half-life was found to be 21.77 min.

The record behind these values is PMC11677724, “Preclinical Study of a Dual-Target Molecular Probe Labeled with ^68Ga Targeting SSTR2 and FAP” (Pharmaceuticals, 2024).
